Test results: ChEMBL document CHEMBL1629672, “blaCTX-M genes in escherichia coli strains from Croatian Hospitals are located in new (blaCTX-M-3a) and widely spread (blaCTX-M-3a and blaCTX-M-15) genetic structures” (2009)
≈ marks a conversion by molar mass, not a printed value.

Key:
Escherichia coli [1] = assay: Antimicrobial activity against Escherichia coli isolate 16 harboring bla CTX-M-3a gene by broth microdilution method; format: functional
Escherichia coli [2] = assay: Antimicrobial activity against Escherichia coli isolate Z1 harboring bla CTX-M-3a gene by broth microdilution method; format: functional
Escherichia coli [3] = assay: Antimicrobial activity against Escherichia coli isolate 49 harboring bla CTX-M-3a gene by broth microdilution method; format: functional
Escherichia coli [4] = assay: Antimicrobial activity against Escherichia coli isolate 100 harboring bla CTX-M-3a gene by broth microdilution method; format: functional
Escherichia coli [5] = assay: Antimicrobial activity against Escherichia coli isolate 86 harboring bla CTX-M-3a gene by broth microdilution method; format: functional
Escherichia coli [6] = assay: Antimicrobial activity against Escherichia coli isolate 36 harboring bla CTX-M-3a gene by broth microdilution method; format: functional
Escherichia coli [7] = assay: microbe, parasite or virus in culture; conditions: ATCC 25922
Escherichia coli [8] = assay: Antimicrobial activity against Escherichia coli isolate 32 harboring bla CTX-M-3a gene by broth microdilution method; format: functional
Escherichia coli [9] = assay: Antimicrobial activity against Escherichia coli ATCC 25922 harboring bla CTX-M-3a gene by broth microdilution method in presence of clavulanic acid; format: functional
Escherichia coli [10] = assay: Antimicrobial activity against Escherichia coli isolate 36 harboring bla CTX-M-3a gene by broth microdilution method in presence of clavulanic acid
Escherichia coli [11] = assay: Antimicrobial activity against Escherichia coli isolate 16 harboring bla CTX-M-3a gene by broth microdilution method in presence of clavulanic acid
Escherichia coli [12] = assay: Antimicrobial activity against Escherichia coli isolate Z1 harboring bla CTX-M-3a gene by broth microdilution method in presence of clavulanic acid
Escherichia coli [13] = assay: Antimicrobial activity against Escherichia coli isolate 86 harboring bla CTX-M-3a gene by broth microdilution method in presence of clavulanic acid
Escherichia coli [14] = assay: Antimicrobial activity against Escherichia coli isolate 49 harboring bla CTX-M-3a gene by broth microdilution method in presence of clavulanic acid
Escherichia coli [15] = assay: Antimicrobial activity against Escherichia coli isolate 100 harboring bla CTX-M-3a gene by broth microdilution method in presence of clavulanic acid
Escherichia coli [16] = assay: Antimicrobial activity against Escherichia coli isolate 32 harboring bla CTX-M-3a gene by broth microdilution method in presence of clavulanic acid
Escherichia coli [17] = assay: Antimicrobial activity against Escherichia coli isolate 36 harboring bla CTX-M-3a gene by broth microdilution method in presence of Tazobactam; format: functional
Escherichia coli [18] = assay: Antimicrobial activity against Escherichia coli ATCC 25922 harboring bla CTX-M-3a gene by broth microdilution method in presence of Tazobactam; format: functional
Escherichia coli [19] = assay: Antimicrobial activity against Escherichia coli isolate 32 harboring bla CTX-M-3a gene by broth microdilution method in presence of Tazobactam; format: functional
Escherichia coli [20] = assay: Antimicrobial activity against Escherichia coli isolate 100 harboring bla CTX-M-3a gene by broth microdilution method in presence of Tazobactam; format: functional
Escherichia coli [21] = assay: Antimicrobial activity against Escherichia coli isolate 86 harboring bla CTX-M-3a gene by broth microdilution method in presence of Tazobactam; format: functional
Escherichia coli [22] = assay: Antimicrobial activity against Escherichia coli isolate 49 harboring bla CTX-M-3a gene by broth microdilution method in presence of Tazobactam; format: functional
Escherichia coli [23] = assay: Antimicrobial activity against Escherichia coli isolate 16 harboring bla CTX-M-3a gene by broth microdilution method in presence of Tazobactam; format: functional

| Compound | MIC (Escherichia coli [1]) [µg/mL] | MIC (Escherichia coli [2]) [µg/mL] | MIC (Escherichia coli [3]) [µg/mL] | MIC (Escherichia coli [4]) [µg/mL] | MIC (Escherichia coli [5]) [µg/mL] | MIC (Escherichia coli [6]) [µg/mL] | MIC (Escherichia coli [7]) [µg/mL] | MIC (Escherichia coli [8]) [µg/mL] | further results |
| --- | --- | --- | --- | --- | --- | --- | --- | --- | --- |
| CO/N=C(\C(=O)N[C@@H]1C(=O)N2C(C(=O)[O-])=C(C[N+]3(C)CCCC3)CS[C@H]12)c1csc(N)n1 | 128 (≈ 266 µM) | 64 (≈ 133 µM) | 8 (≈ 16.6 µM) | 32 (≈ 66.6 µM) | 512 (≈ 1070 µM) | 256 (≈ 533 µM) |  |  |  |
| NCC[C@H](O)C(=O)N[C@@H]1C[C@H](N)[C@@H](O[C@H]2O[C@H](CN)[C@@H](O)[C@H](O)[C@H]2O)[C@H](O)[C@H]1O[C@H]1O[C@H](CO)[C@@H](O)[C@H](N)[C@H]1O [AMIKACIN] | 64 (≈ 109 µM) | > 128 | ≤ 0.03 | > 128 | 4 (≈ 6.83 µM) | 2 (≈ 3.42 µM) | 1 (≈ 1.71 µM) | 16 (≈ 27.3 µM) |  |
| CC1(C)S[C@@H]2[C@H](NC(=O)[C@H](N)c3ccc(O)cc3)C(=O)N2[C@H]1C(=O)O [AMOXICILLIN] | 4 (≈ 10.9 µM) | 32 (≈ 87.6 µM) | 1 (≈ 2.74 µM) | 8 (≈ 21.9 µM) | 8 (≈ 21.9 µM) | 8 (≈ 21.9 µM) | 4 (≈ 10.9 µM) | 8 (≈ 21.9 µM) |  |
| CC1(C)S[C@@H]2[C@H](NC(=O)[C@H](N)c3ccccc3)C(=O)N2[C@H]1C(=O)O [AMPICILLIN] | > 1020 | > 1020 | > 1020 | > 1020 | > 1020 | > 1020 | 4 (≈ 11.4 µM) | > 1020 |  |
| CO/N=C(\C(=O)N[C@@H]1C(=O)N2C(C(=O)O)=C(COC(C)=O)CS[C@H]12)c1csc(N)n1 [CEFOTAXIME] | 64 (≈ 141 µM) | > 1020 | 128 (≈ 281 µM) | 128 (≈ 281 µM) | > 1020 | 512 (≈ 1120 µM) | 0.06 (≈ 0.132 µM) | > 1020 | MIC (Escherichia coli [9]): ≤ 0.03 µg/mL; MIC (Escherichia coli [10]): 0.06 µg/mL; MIC (Escherichia coli [11]): 0.125 µg/mL; MIC (Escherichia coli [12]): 0.5 µg/mL; MIC (Escherichia coli [13]): 0.125 µg/mL; MIC (Escherichia coli [14]): 0.06 µg/mL; MIC (Escherichia coli [15]): 0.06 µg/mL; MIC (Escherichia coli [16]): 0.06 µg/mL |
| CO[C@@]1(NC(=O)Cc2cccs2)C(=O)N2C(C(=O)O)=C(COC(N)=O)CS[C@@H]21 [CEFOXITIN] | 4 (≈ 9.36 µM) | 16 (≈ 37.4 µM) | 2 (≈ 4.68 µM) | 8 (≈ 18.7 µM) | 16 (≈ 37.4 µM) | 8 (≈ 18.7 µM) | 4 (≈ 9.36 µM) | 16 (≈ 37.4 µM) |  |
| CC(C)(O/N=C(\C(=O)N[C@@H]1C(=O)N2C(C(=O)[O-])=C(C[n+]3ccccc3)CS[C@H]12)c1csc(N)n1)C(=O)O [CEFTAZIDIME] | 1 (≈ 1.83 µM) | 16 (≈ 29.3 µM) | 0.25 (≈ 0.457 µM) | 4 (≈ 7.32 µM) | 8 (≈ 14.6 µM) | 4 (≈ 7.32 µM) | 0.25 (≈ 0.457 µM) | 4 (≈ 7.32 µM) | MIC (Escherichia coli [9]): 0.125 µg/mL; MIC (Escherichia coli [10]): 0.25 µg/mL; MIC (Escherichia coli [11]): 0.125 µg/mL; MIC (Escherichia coli [12]): 1 µg/mL; MIC (Escherichia coli [13]): 0.5 µg/mL; MIC (Escherichia coli [14]): 0.06 µg/mL; MIC (Escherichia coli [15]): 0.5 µg/mL; MIC (Escherichia coli [16]): 0.5 µg/mL |
| CO/N=C(\C(=O)N[C@@H]1C(=O)N2C(C(=O)O)=C(CSc3nc(=O)c(O)nn3C)CS[C@H]12)c1csc(N)n1 [CEFTRIAXONE] | > 1020 | > 1020 | 128 (≈ 231 µM) | > 1020 | > 1020 | > 1020 | 0.06 (≈ 0.108 µM) | > 1020 |  |
| O=C(O)c1cn(C2CC2)c2cc(N3CCNCC3)c(F)cc2c1=O [CIPROFLOXACIN] |  | > 128 | ≤ 0.03 |  |  |  | ≤ 0.03 |  |  |
| C[C@@H](O)[C@H]1C(=O)N2C(C(=O)O)=C(SCCNC=N)C[C@H]12 [IMIPENEM ANHYDROUS] |  | 1 (≈ 3.34 µM) | 0.06 (≈ 0.2 µM) | 0.5 (≈ 1.67 µM) |  | 0.25 (≈ 0.835 µM) |  | 0.25 (≈ 0.835 µM) |  |
| C[C@@H](O)[C@H]1C(=O)N2C(C(=O)O)=C(S[C@@H]3CN[C@H](C(=O)N(C)C)C3)[C@H](C)[C@H]12 [MEROPENEM] | 0.06 (≈ 0.156 µM) | 0.125 (≈ 0.326 µM) | 0.06 (≈ 0.156 µM) | 0.25 (≈ 0.652 µM) | 0.06 (≈ 0.156 µM) | 0.125 (≈ 0.326 µM) | ≤ 0.03 | 0.06 (≈ 0.156 µM) |  |
| CCN1CCN(C(=O)N[C@@H](C(=O)N[C@@H]2C(=O)N3[C@@H]2SC(C)(C)[C@@H]3C(=O)O)c2ccccc2)C(=O)C1=O [PIPERACILLIN] | 256 (≈ 495 µM) | > 1020 | 64 (≈ 124 µM) | > 1020 | > 1020 | > 1020 | 2 (≈ 3.86 µM) | > 1020 | MIC (Escherichia coli [17]): 4 µg/mL; MIC (Escherichia coli [18]): 2 µg/mL; MIC (Escherichia coli [19]): 16 µg/mL; MIC (Escherichia coli [20]): 4 µg/mL; MIC (Escherichia coli [21]): > 128 µg/mL; MIC (Escherichia coli [22]): 8 µg/mL; MIC (Escherichia coli [23]): 2 µg/mL |
| GENTAMICIN | 32 | > 128 | 0.125 | > 128 | > 128 | 1 |  | > 128 |  |
